{"source": "the supplement of paper PMC10307832", "experiment_in_all_cases": "relative viability (nuclei count vs DMSO), 5 days (fraction); higher = more cells survive", "key": {"201T": {"test_system": "201T", "method_in_brief": "(§1)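 Relative viability equals treated-well nuclei counts divided by vehicle-well nuclei counts. Counts came from 4× images of lung cancer cell lines grown in 1536-well plates for 5 days after pin-tool dosing on the day after seeding. Dosing used one drug alone or a fixed anchor-drug dose plus five library-drug doses (not always all listed) in √10 steps, and values are medians of duplicate plates.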"}, "ChaGo-K-1": {"test_system": "ChaGo-K-1", "method_in_brief": "as §1"}, "HCC-78": {"test_system": "HCC-78", "method_in_brief": "as §1"}, "HCC-827": {"test_system": "HCC-827", "method_in_brief": "as §1"}, "LCLC-103H": {"test_system": "LCLC-103H", "method_in_brief": "as §1"}, "LCLC-97TM1": {"test_system": "LCLC-97TM1", "method_in_brief": "as §1"}, "LOU-NH91": {"test_system": "LOU-NH91", "method_in_brief": "as §1"}, "NCI-H1437": {"test_system": "NCI-H1437", "method_in_brief": "as §1"}, "NCI-H1755": {"test_system": "NCI-H1755", "method_in_brief": "as §1"}, "NCI-H2023": {"test_system": "NCI-H2023", "method_in_brief": "as §1"}, "NCI-H2085": {"test_system": "NCI-H2085", "method_in_brief": "as §1"}}, "data": [{"smiles": "COCC1(CO)C(=O)C2CCN1CC2", "note": "(stereo unspecified) [PRIMA-1MET] + Cc1cc(Nc2cc(N3CCN(C)CC3)nc(Sc3ccc(NC(=O)C4CC4)cc3)n2)n[nH]1 [Tozasertib] (partner 0.1 µM)", "values": [{"measurement": "relative viability", "setting": "201T; first compound 0.2 µM", "result": 1.12}, {"measurement": "relative viability", "setting": "201T; first compound 0.6325 µM", "result": 0.912}, {"measurement": "relative viability", "setting": "201T; first compound 2 µM", "result": 0.899}, {"measurement": "relative viability", "setting": "201T; first compound 6.325 µM", "result": 0.908}, {"measurement": "relative viability", "setting": "201T; first compound 20 µM", "result": 0.905}, {"measurement": "relative viability", "setting": "ChaGo-K-1; first compound 0.2 µM", "result": 0.209}, {"measurement": "relative viability", "setting": "ChaGo-K-1; first compound 0.6325 µM", "result": 0.2}, {"measurement": "relative viability", "setting": "ChaGo-K-1; first compound 2 µM", "result": 0.213}, {"measurement": "relative viability", "setting": "ChaGo-K-1; first compound 6.325 µM", "result": 0.224}, {"measurement": "relative viability", "setting": "ChaGo-K-1; first compound 20 µM", "result": 0.207}, {"measurement": "relative viability", "setting": "HCC-78; first compound 0.2 µM", "result": 0.47}, {"measurement": "relative viability", "setting": "HCC-78; first compound 0.6325 µM", "result": 0.414}, {"measurement": "relative viability", "setting": "HCC-78; first compound 6.325 µM", "result": 0.385}, {"measurement": "relative viability", "setting": "HCC-78; first compound 20 µM", "result": 0.228}, {"measurement": "relative viability", "setting": "HCC-827; first compound 0.2 µM", "result": 0.424}, {"measurement": "relative viability", "setting": "HCC-827; first compound 0.6325 µM", "result": 0.387}, {"measurement": "relative viability", "setting": "HCC-827; first compound 2 µM", "result": 0.376}, {"measurement": "relative viability", "setting": "HCC-827; first compound 6.325 µM", "result": 0.399}, {"measurement": "relative viability", "setting": "HCC-827; first compound 20 µM", "result": 0.379}, {"measurement": "relative viability", "setting": "LCLC-103H; first compound 0.2 µM", "result": 0.554}, {"measurement": "relative viability", "setting": "LCLC-103H; first compound 0.6325 µM", "result": 0.453}, {"measurement": "relative viability", "setting": "LCLC-103H; first compound 2 µM", "result": 0.393}, {"measurement": "relative viability", "setting": "LCLC-103H; first compound 6.325 µM", "result": 0.419}, {"measurement": "relative viability", "setting": "LCLC-103H; first compound 20 µM", "result": 0.161}, {"measurement": "relative viability", "setting": "LCLC-97TM1; first compound 0.2 µM", "result": 0.237}, {"measurement": "relative viability", "setting": "LCLC-97TM1; first compound 0.6325 µM", "result": 0.239}, {"measurement": "relative viability", "setting": "LCLC-97TM1; first compound 2 µM", "result": 0.325}, {"measurement": "relative viability", "setting": "LCLC-97TM1; first compound 6.325 µM", "result": 0.204}, {"measurement": "relative viability", "setting": "LCLC-97TM1; first compound 20 µM", "result": 0.123}, {"measurement": "relative viability", "setting": "LOU-NH91; first compound 0.2 µM", "result": 0.618}, {"measurement": "relative viability", "setting": "LOU-NH91; first compound 0.6325 µM", "result": 0.673}, {"measurement": "relative viability", "setting": "LOU-NH91; first compound 2 µM", "result": 0.625}, {"measurement": "relative viability", "setting": "LOU-NH91; first compound 6.325 µM", "result": 0.715}, {"measurement": "relative viability", "setting": "LOU-NH91; first compound 20 µM", "result": 0.427}, {"measurement": "relative viability", "setting": "NCI-H1437; first compound 0.2 µM", "result": 0.41}, {"measurement": "relative viability", "setting": "NCI-H1437; first compound 0.6325 µM", "result": 0.408}, {"measurement": "relative viability", "setting": "NCI-H1437; first compound 2 µM", "result": 0.407}, {"measurement": "relative viability", "setting": "NCI-H1437; first compound 6.325 µM", "result": 0.411}, {"measurement": "relative viability", "setting": "NCI-H1437; first compound 20 µM", "result": 0.407}, {"measurement": "relative viability", "setting": "NCI-H1755; first compound 0.2 µM", "result": 0.699}, {"measurement": "relative viability", "setting": "NCI-H1755; first compound 0.6325 µM", "result": 0.596}, {"measurement": "relative viability", "setting": "NCI-H1755; first compound 2 µM", "result": 0.509}, {"measurement": "relative viability", "setting": "NCI-H1755; first compound 6.325 µM", "result": 0.554}, {"measurement": "relative viability", "setting": "NCI-H1755; first compound 20 µM", "result": 0.455}, {"measurement": "relative viability", "setting": "NCI-H2023; first compound 0.2 µM", "result": 0.461}, {"measurement": "relative viability", "setting": "NCI-H2023; first compound 0.6325 µM", "result": 0.327}, {"measurement": "relative viability", "setting": "NCI-H2023; first compound 2 µM", "result": 0.389}, {"measurement": "relative viability", "setting": "NCI-H2023; first compound 6.325 µM", "result": 0.359}, {"measurement": "relative viability", "setting": "NCI-H2023; first compound 20 µM", "result": 0.35}, {"measurement": "relative viability", "setting": "NCI-H2085; first compound 0.2 µM", "result": 0.936}, {"measurement": "relative viability", "setting": "NCI-H2085; first compound 0.6325 µM", "result": 0.927}]}]}
